The structures appear in SMILES notation.

This assay has as its system HT-1080 (ATCC, CCL-121) cells. Nature of the assay: HT-1080 cell viability assay with ferroptosis inducer RSL3 (Cell Titer-Glo). The format is cell-based. The settings on record: Homo sapiens; HT-1080 cells treated with RSL3; 3-fold, 10-point dilution, 1.1 μM highest concentration; Table 2; read-out: EC50 (nM), ferroptosis inhibitory activity. Here is the method: Example 2. Determination of EC50 Values in HT-1080 Cell Viability Assay
HT-1080 (ATCC, CCL-121) cells (6000 in 100 μl) were seeded in 96-well plates (Corning) and cultured in a 37° C. incubator with a humidified atmosphere of 5% CO2 for overnight. Cells were then treated with ferroptosis inducer RSL3 (TargetMol) and a 3-fold, 10-point serial dilution series of compounds with 1.1 μM as the highest concentration, […]. Cell viability was assessed using the Cell Titer-Glo Kit (Promega). The luminescence intensity was measured with a microplate reader (Envision, PerkinElmer), and cell viability was calculated by normalizing the data to untreated controls. The EC50 values of the compounds (e.g., Compounds 1-659) were calculated in GraphPad Prism (GraphPad Software, Inc., San Diego, CA, USA). The curves were fitted using a non-linear regression model with a sigmoidal dose response.
Take `CN1C(=O)COc2cc(Nc3ccc(C4CCC(C)(C)CC4)cc3)ccc21` [Compound 35, 7-((4-(4,4-dimethylcyclohexyl)phenyl)amino)-4-methyl-2H-benzo[b][1,4]oxazin-3(4H)-one]: the EC50 – broadly, the concentration at which the effect is half-maximal – lay within 0.1 to 100 nM.
For `CC(C)C1CCN(c2ncc(Nc3ccc4c(c3)OCC(=O)N4C)cn2)CC1` [Compound 36, 7-((2-(4-isopropylpiperidin-1-yl)pyrimidin-5-yl)amino)-4-methyl-2H-benzo[b][1,4]oxazin-3(4H)-one], the EC50 lay within 0.1 to 100 nM.
Consider `CN1C(=O)COc2cc(Nc3ccc4c(c3)CCCC4(C)C)ccc21` [Compound 37, 7-((5,5-dimethyl-5,6,7,8-tetrahydronaphthalen-2-yl)amino)-4-methyl-2H-benzo[b][1,4]oxazin-3(4H)-one], for which the EC50 was in the range of 0.1 to 100 nM.
Turning to `CCC(C)(C)c1ccc(Nc2ccc3c(c2)OCC(=O)N3C)cc1` [Compound 38, 4-methyl-7-((4-(tert-pentyl)phenyl)amino)-2H-benzo[b][1,4]oxazin-3(4H)-one], the EC50 was in the range of 0.1 to 100 nM.
The same measure for `CN1C(=O)COc2cc(Nc3ccc4c(c3)C(C)(C)CC4(C)C)ccc21` [Compound 39, 4-methyl-7-((1,1,3,3-tetramethyl-2,3-dihydro-1H-inden-5-yl)amino)-2H-benzo[b][1,4]oxazin-3(4H)-one]: 100 to 1000 nM.
Take `NC(=O)NCCN1C(=O)COc2cc(Nc3ccc(N4CCC(C(F)(F)F)CC4)cc3)ccc21` [Compound 40, 1-(2-(3-oxo-7-((4-(4-(trifluoromethyl)piperidin-1-yl)phenyl)amino)-2,3-dihydro-4H-benzo[b][1,4]oxazin-4-yl)ethyl)urea]: the EC50 lay in the range of 0.1 to 100 nM.
On to `CNCCCN1C(=O)COc2cc(Nc3ccc(N4CCC(C(F)(F)F)CC4)cc3)ccc21` [Compound 41, 4-(3-(methylamino)propyl)-7-((4-(4-(trifluoromethyl)piperidin-1-yl)phenyl)amino)-2H-benzo[b][1,4]oxazin-3(4H)-one], for which the EC50 was in the range of 0.1 to 100 nM.
Take `CN1C(=O)COc2cc(Nc3ccc4c(c3)CCC4(C)C)ccc21` [Compound 42, 7-((1,1-dimethyl-2,3-dihydro-1H-inden-5-yl)amino)-4-methyl-2H-benzo[b][1,4]o xazin-3(4H)-one]: the EC50 fell in the range of 0.1 to 100 nM.
As for `CNCCN1C(=O)COc2cc(Nc3ccc(N4CCC(C(F)(F)F)CC4)cc3)ccc21` [Compound 43, 4-(2-(methylamino)ethyl)-7-((4-(4-(trifluoromethyl)piperidin-1-yl)phenyl)amino)-2H-benzo[b][1,4]oxazin-3(4H)-one], the EC50 was in the range of 0.1 to 100 nM.
The result for `CC1CN(c2ccc(Nc3ccc4c(c3)OCC(=O)N4C)cc2)CC(C)O1` (stereo not shown) [Compound 44, 7-((4-(2,6-dimethylmorpholino)phenyl)amino)-4-methyl-2H-benzo[b][1,4]oxazin-3(4H)-one] reads 0.1 to 100 nM; that for `CNCCCN1C(=O)COc2cc(Nc3ccc(N4CC(C)OC(C)C4)cc3)ccc21` (stereo not shown) [Compound 45, 7-((4-(2,6-dimethylmorpholino)phenyl)amino)-4-(3-(methylamino)propyl)-2H-benzo[b][1,4]oxazin-3(4H)-one], 0.1 to 100 nM; that for `NC(=O)CCCN1C(=O)COc2cc(Nc3ccc(N4CCC(C(F)(F)F)CC4)cc3)ccc21` [Compound 46, 4-(3-oxo-7-((4-(4-(trifluoromethyl)piperidin-1-yl)phenyl)amino)-2,3-dihydro-4H-benzo[b][1,4]oxazin-4-yl)butanamide], 0.1 to 100 nM.
The result for `CN1C(=O)COc2cc(Nc3ccc(C(C)(C)C)cc3)ccc21` [Compound 47, 7-((4-(tert-butyl)phenyl)amino)-4-methyl-2H-benzo[b][1,4]oxazin-3(4H)-one] reads 0.1 to 100 nM; that for `CNCCN1C(=O)COc2cc(Nc3ccc(C(C)(C)C)cc3)ccc21` [Compound 48, 7-((4-(tert-butyl)phenyl)amino)-4-(2-(methylamino)ethyl)-2H-benzo[b][1,4]oxazin-3(4H)-one], 0.1 to 100 nM.
The same measure for `CN1C(=O)COc2cc(Nc3ccc4c(c3)CC(C)(C)C4)ccc21` [Compound 49, 7-((2,2-dimethyl-2,3-dihydro-1H-inden-5-yl)amino)-4-methyl-2H-benzo[b][1,4] oxazin-3(4H)-one]: 0.1 to 100 nM; for `CNCCCN1C(=O)COc2cc(Nc3ccc(N4CC(C)OC(C)C4)cc3C)ccc21` (stereo not shown) [Compound 50, 7-((4-(2,6-dimethylmorpholino)-2-methylphenyl)amino)-4-(3-(methylamino)propyl)-2H-benzo[b][1,4]oxazin-3(4H)-one]: 0.1 to 100 nM.
As for `Cc1cc(N2CC(C)OC(C)C2)ccc1Nc1ccc2c(c1)OCC(=O)N2C` (stereo not shown) [Compound 51, 7-((4-(2,6-dimethylmorpholino)-2-methylphenyl)amino)-4-methyl-2H-benzo[b][1,4]oxazin-3(4H)-one], the EC50 lay in the range of 0.1 to 100 nM.
Consider `Cc1cc(Nc2ccc3c(c2)OCC(=O)N3C)ccc1N1CC(C)OC(C)C1` (stereo not shown) [Compound 52, 7-((4-(2,6-dimethylmorpholino)-3-methylphenyl)amino)-4-methyl-2H-benzo[b][1,4]oxazin-3(4H)-one], for which the EC50 was 0.1 to 100 nM.
`CNCCN1C(=O)COc2cc(Nc3ccc(N4CC(C)OC(C)C4)cc3)ccc21` (stereo not shown) [Compound 53, 7-((4-(2,6-dimethylmorpholino)phenyl)amino)-4-(2-(methylamino)ethyl)-2H-benzo[b][1,4]oxazin-3(4H)-one]: the EC50 was 0.1 to 100 nM.
With `CNCCN1C(=O)COc2cc(Nc3ccc(C4CC(C)OC(C)C4)cc3)ccc21` (stereo not shown) [Compound 54, 7-((4-(2,6-dimethyltetrahydro-2H-pyran-4-yl)phenyl)amino)-4-(2-(methylamino)ethyl)-2H-benzo[b][1,4]oxazin-3(4H)-one], the EC50 lay within 0.1 to 100 nM.
The same measure for `CNCCN1C(=O)COc2cc(Nc3ccc(N4CC(C)OC(C)C4)cc3C)ccc21` (stereo not shown) [Compound 55, 7-((4-(2,6-dimethylmorpholino)-2-methylphenyl)amino)-4-(2-(methylamino)ethyl)-2H-benzo[b][1,4]oxazin-3(4H)-one]: 0.1 to 100 nM.
The same measure for `CNCCCN1C(=O)COc2cc(Nc3ccc(N4CC(C)OC(C)C4)c(C)c3)ccc21` (stereo not shown) [Compound 56, 7-((4-(2,6-dimethylmorpholino)-3-methylphenyl)amino)-4-(3-(methylamino)propyl)-2H-benzo[b][1,4]oxazin-3(4H)-one]: 0.1 to 100 nM; for `CN1C(=O)COc2cc(Nc3cc(F)c(N4CCC(C(F)(F)F)CC4)c(F)c3)ccc21` [Compound 57, 7-((3,5-difluoro-4-(4-(trifluoromethyl)piperidin-1-yl)phenyl)amino)-4-methyl-2H-benzo[b][1,4]oxazin-3(4H)-one]: 0.1 to 100 nM.
As to `CN1C(=O)COc2cc(Nc3cnc(N4CCC(C(F)(F)F)CC4)nc3)ccc21` [Compound 58, 4-methyl-7-((2-(4-(trifluoromethyl)piperidin-1-yl)pyrimidin-5-yl)amino)-2H-benzo[b][1,4]oxazin-3(4H)-one], the EC50 is 0.1 to 100 nM.
`Cc1cc(N2CCC(C(F)(F)F)CC2)c(F)cc1Nc1ccc2c(c1)OCC(=O)N2C` [Compound 59, 7-((5-fluoro-2-methyl-4-(4-(trifluoromethyl)piperidin-1-yl)phenyl)amino)-4-methyl-2H-benzo[b][1,4]oxazin-3(4H)-one]: the EC50 was in the range of 0.1 to 100 nM.
On to `CC1CN(c2ccc(Nc3ccc4c(c3)OCCN4C)cc2)CC(C)O1` (stereo not shown) [Compound 60, N-(4-(2,6-dimethylmorpholino)phenyl)-4-methyl-3,4-dihydro-2H-benzo[b][1,4]oxazin-7-amine], for which the EC50 was in the range of 0.1 to 100 nM.
As for `Cc1cc(N2CC(C)OC(C)C2)c(F)cc1Nc1ccc2c(c1)OCC(=O)N2C` (stereo not shown) [Compound 61, 7-((4-(2,6-dimethylmorpholino)-5-fluoro-2-methylphenyl)amino)-4-methyl-2H-benzo[b][1,4]oxazin-3(4H)-one], the EC50 fell in the range of 0.1 to 100 nM.
With `CNCCN1C(=O)COc2cc(Nc3ccc(N4CC(C)OC(C)C4)c(C)c3)ccc21` (stereo not shown) [Compound 62, 7-((4-(2,6-dimethylmorpholino)-3-methylphenyl)amino)-4-(2-(methylamino)ethyl)-2H-benzo[b][1,4]oxazin-3(4H)-one], the EC50 is 0.1 to 100 nM.
With `Cc1c(Nc2ccc3c(c2)OCC(=O)N3C)ccc(N2CCC(C(F)(F)F)CC2)c1F` [Compound 63, 7-((3-fluoro-2-methyl-4-(4-(trifluoromethyl)piperidin-1-yl)phenyl)amino)-4-methyl-2H-benzo[b][1,4]oxazin-3(4H)-one], the EC50 is 0.1 to 100 nM.
The same measure for `CC1CC(c2ccc(Nc3ccc4c(c3)OCC(=O)N4C)cc2)CC(C)O1` (stereo not shown) [Compound 64, 7-((4-(2,6-dimethyltetrahydro-2H-pyran-4-yl)phenyl)amino)-4-methyl-2H-benzo[b][1,4]oxazin-3(4H)-one]: 0.1 to 100 nM.
`CC1CN(c2ccc3cc(Nc4ccc5c(c4)OCC(=O)N5C)ccc3n2)CC(C)O1` (stereo not shown) [Compound 65, 7-((2-(2,6-dimethylmorpholino)quinolin-6-yl)amino)-4-methyl-2H-benzo[b][1,4]oxazin-3(4H)-one]: the EC50 was 0.1 to 100 nM.
`CC1CN(c2ncc(Nc3ccc4c(c3)OCC(=O)N4C)cn2)CC(C)O1` (stereo not shown) [Compound 66, 7-((2-(2,6-dimethylmorpholino)pyrimidin-5-yl)amino)-4-methyl-2H-benzo[b][1,4]oxazin-3(4H)-one]: the EC50 lay in the range of 0.1 to 100 nM.
Regarding `CC1CN(c2c(F)cc(Nc3ccc4c(c3)OCC(=O)N4C)cc2F)CC(C)O1` (stereo not shown) [Compound 67], the EC50 fell in the range of 0.1 to 100 nM.
With `CCC1Oc2cc(Nc3ccc(N4CCC(C(F)(F)F)CC4)cc3)ccc2N(C)C1=O` (stereo not shown) [Compound 68, 2-ethyl-4-methyl-7-((4-(4-(trifluoromethyl)piperidin-1-yl)phenyl)amino)-2H-benzo[b][1,4]oxazin-3(4H)-one], the EC50 is 0.1 to 100 nM.

The values are drawn from patent publication US20240327393A1 (SIRONAX LTD., priority 2021, published 2024).
